Assay results from US12559474B2, “Triazine derivatives having virus replication inhibitory activity and pharmaceutical composition comprising the same” (priority 2021, dated 2026).
pIC50: −log10 of the molar value.

The compounds below were run against SARS-CoV-2 3CL protease (Severe acute respiratory syndrome coronavirus 2, UniProt P0DTD1) (assay: biochemical). Conditions: 50% SARS-CoV-2 3CL protease inhibitory concentration, given as class symbols; read-out: IC50.

Compound | pIC50
Cn1cnc(Cn2c(=O)nc(Nc3cc4cn(CC5(N)CC5)nc4cc3Cl)n(Cc3cc(Cl)c(F)cc3F)c2=O)n1 [II-0557] | > 7.00
Cn1cnc(Cn2c(=O)nc(Nc3cc4cn(CC5(N)CC5)nc4cc3Cl)n(Cc3cc(F)c(F)c(Cl)c3)c2=O)n1 [II-0558] | > 7.00

Same assay, conditions: IC50

Compound | pIC50
O=c1[nH]cccc1Cn1c(=O)nc(NC23CC(Nc4ncccn4)(C2)C3)n(Cc2cc(F)c(F)c(F)c2)c1=O [II-0443] | > 7.00
Cc1cnc(NC23CC(Nc4nc(=O)n(Cc5ccc[nH]c5=O)c(=O)n4Cc4cc(F)c(F)c(F)c4)(C2)C3)nc1 [II-0444] | > 7.00
O=c1[nH]cccc1Cn1c(=O)nc(NC23CC(Nc4ncc(C5CC5)cn4)(C2)C3)n(Cc2cc(F)c(F)c(F)c2)c1=O [II-0445] | > 7.00
CN1CC[C@H](n2cc3cc(Nc4nc(=O)n(Cc5ncn(C)n5)c(=O)n4Cc4cc(Cl)c(F)cc4F)c(Cl)cc3n2)C1=O [II-0447] | > 7.00
CN1CC[C@H](n2cc3cc(Nc4nc(=O)n(Cc5ncn(C)n5)c(=O)n4Cc4cc(F)c(F)c(Cl)c4)c(Cl)cc3n2)C1=O [II-0451] | > 7.00
O=c1[nH]cccc1Cn1c(=O)nc(NC23CC(Nc4ncc(C(F)(F)F)cn4)(C2)C3)n(Cc2cc(F)c(F)c(F)c2)c1=O [II-0456] | > 7.00
O=c1[nH]cccc1Cn1c(=O)nc(NC23CC(Nc4ncc5ccccc5n4)(C2)C3)n(Cc2cc(F)c(F)c(F)c2)c1=O [II-0457] | > 7.00
CN1CC[C@H](n2cc3cc(Nc4nc(=O)n(Cc5ncn(C)n5)c(=O)n4Cc4cc(F)c(F)cc4F)c(Cl)cc3n2)C1=O [II-0465] | > 7.00
Cc1cncc(-n2c(=O)nc(Nc3cc4c(=O)n(C)cnc4cc3Cl)n(Cc3ccc(F)c(C#N)c3)c2=O)c1 [II-0467] | > 7.00
Cn1cnc(Cn2c(=O)nc(NC34CC(Nc5ncc(C(F)(F)F)cn5)(C3)C4)n(Cc3cc(F)c(F)c(F)c3)c2=O)n1 [II-0470] | > 7.00
Cn1cnc(Cn2c(=O)nc(Nc3cc4cn(CC(F)F)nc4cc3F)n(Cc3ccc(F)c(C#N)c3)c2=O)n1 [II-0471] | > 7.00
Cn1cnc(Cn2c(=O)nc(NC34CC(Nc5ncc6ccccc6n5)(C3)C4)n(Cc3cc(F)c(F)c(F)c3)c2=O)n1 [II-0472] | > 7.00
Cn1cnc(Cn2c(=O)nc(NC34CC(Nc5ncc(F)cn5)(C3)C4)n(Cc3cc(F)c(F)c(F)c3)c2=O)n1 [II-0473] | > 7.00
Cn1cnc(Cn2c(=O)nc(NC34CC(Nc5ncccn5)(C3)C4)n(Cc3cc(F)c(F)c(F)c3)c2=O)n1 [II-0474] | > 7.00
O=c1[nH]cccc1Cn1c(=O)nc(NC23CC(Nc4ccccn4)(C2)C3)n(Cc2cc(F)c(F)c(F)c2)c1=O [II-0476] | > 7.00
Cc1cncc(-n2c(=O)nc(Nc3cc4c(=O)n(C)cnc4cc3F)n(Cc3ccc(F)c(C#N)c3)c2=O)c1 [II-0480] | > 7.00
CNC(=O)c1cccc(C2(Nc3nc(=O)n(Cc4ccc[nH]c4=O)c(=O)n3Cc3cc(F)c(F)c(F)c3)CCC2)c1 [II-0481] | 7.00
Cn1cc2cc(Nc3nc(=O)n(-c4cnc5ccccn45)c(=O)n3Cc3ccc(F)c(C#N)c3)c(Cl)cc2n1 [II-0488] | > 7.00
Cn1cnc(Cn2c(=O)nc(Nc3cc4sc(NCC(F)F)nc4cc3Cl)n(Cc3ccc(F)c(C#N)c3)c2=O)n1 [II-0502] | > 7.00
Cn1cnc(Cn2c(=O)nc(Nc3cc4oc(N)nc4cc3Cl)n(Cc3cc(F)c(F)c(F)c3)c2=O)n1 [II-0511] | > 7.00
Cn1cnc(Cn2c(=O)nc(Nc3cc4cn(CCN)nc4cc3Cl)n(Cc3cc(Cl)c(F)cc3F)c2=O)n1 [II-0530] | > 7.00
Cn1cnc(Cn2c(=O)nc(Nc3cc4cn([C@H]5CC[C@H](N)CC5)nc4cc3Cl)n(Cc3cc(Cl)c(F)cc3F)c2=O)n1 [II-0531] | > 7.00
Cn1cnc(Cn2c(=O)nc(Nc3cc4cn(C5CCNCC5)nc4cc3Cl)n(Cc3cc(Cl)c(F)cc3F)c2=O)n1 [II-0532] | > 7.00

Compound | pIC50
Cn1cnc(Cn2c(=O)nc(Nc3cc4cn(CC(F)F)nc4cc3Cl)n(Cc3cc(Cl)c(F)cn3)c2=O)n1 [II-0540] | > 7.00
Cn1cnc(Cn2c(=O)nc(Nc3cc4cn(C)nc4cc3Cl)n(Cc3cc(Cl)c(F)cn3)c2=O)n1 [II-0542] | > 7.00
Cn1cnc(Cn2c(=O)nc(Nc3cc4cn(CC(F)F)nc4cc3Cl)n(Cc3ccc(F)c(C#N)c3)c2=O)n1 [II-0549] | > 7.00
CN(C)C(=O)CCn1cc2cc(Nc3nc(=O)n(Cc4ncn(C)n4)c(=O)n3Cc3cc(F)c(F)c(Cl)c3)c(Cl)cc2n1 [II-0561] | > 7.00
Cc1cncc(-n2c(=O)nc(Nc3ccc(N=S(C)(C)=O)cc3Cl)n(Cc3ccc(F)c(C#N)c3)c2=O)c1 [II-0575] | > 7.00
CC(=O)Nc1ccc(C#N)cc1Cn1c(Nc2cc3cn(C)nc3cc2Cl)nc(=O)n(-c2cncc(C)c2)c1=O [II-0594] | 6.57
CNc1nc2cc(Cl)c(Nc3nc(=O)n(Cc4ncn(C)n4)c(=O)n3Cc3ccc(F)c(C#N)c3)cc2s1 [II-0603] | > 7.00
Cn1cnc(Cn2c(=O)nc(Nc3cc4cn(C)nc4cc3Cl)n(CC3CCCC3)c2=O)n1 [II-0605] | 5.00 to 6.00
Cn1cnc(Cn2c(=O)nc(Nc3cc4cn(C)nc4cc3Cl)n(CC3CCCCC3)c2=O)n1 [II-0606] | 6.00 to 7.00
Cn1cnc(Cn2c(=O)nc(Nc3cc4cn(C)nc4cc3Cl)n(CC3CCC(F)(F)CC3)c2=O)n1 [II-0607] | 6.00 to 7.00
CC(=O)Nc1snc2cc(Cl)c(Nc3nc(=O)n(Cc4ncn(C)n4)c(=O)n3Cc3cc(Cl)c(F)cc3F)cc12 [II-0610] | > 7.00
Cc1cncc(-n2c(=O)nc(Nc3cc4cn(CCN)nc4cc3Cl)n(Cc3cc(Cl)ccc3Cl)c2=O)c1 [II-0611] | > 7.00
CNc1cncc(-n2c(=O)nc(Nc3ccc4c(c3)CCO4)n(Cc3cc(F)c(F)cc3F)c2=O)c1 [II-0612] | > 7.00
CNc1cncc(-n2c(=O)nc(Nc3cc4c(cc3Cl)OCC4)n(Cc3cc(F)c(F)cc3F)c2=O)c1 [II-0613] | > 7.00
Cc1cncc(-n2c(=O)nc(Nc3ccc(N=S4(=O)CCCC4)cc3C(F)(F)F)n(Cc3cc(Cl)ccc3C)c2=O)c1 [II-0614] | > 7.00
Cc1cncc(-n2c(=O)nc(Nc3ccc(N=S4(=O)CCCC4)c(Cl)c3)n(Cc3cc(Cl)ccc3C)c2=O)c1 [II-0615] | > 7.00
Cc1cncc(-n2c(=O)nc(Nc3ccc(N=S4(=O)CCCC4)cc3F)n(Cc3cc(Cl)ccc3C)c2=O)c1 [II-0616] | > 7.00
Cc1cncc(-n2c(=O)nc(Nc3ccc(N=S4(=O)CCCC4)c(Cl)c3Cl)n(Cc3cc(Cl)ccc3C)c2=O)c1 [II-0617] | > 7.00
Cc1cncc(-n2c(=O)nc(Nc3ccc(N=S4(=O)CCCC4)cc3)n(Cc3cc(Cl)ccc3C)c2=O)c1 [II-0618] | > 7.00
Cc1cncc(-n2c(=O)nc(Nc3cc(Cl)c(N=S4(=O)CCCC4)cc3Cl)n(Cc3cc(Cl)ccc3C)c2=O)c1 [II-0619] | > 7.00
Cc1cncc(-n2c(=O)nc(Nc3cc(F)c(N=S4(=O)CCCC4)cc3Cl)n(Cc3cc(Cl)ccc3C)c2=O)c1 [II-0620] | > 7.00
CCS(=O)(CC)=Nc1ccc(Nc2nc(=O)n(-c3cncc(C)c3)c(=O)n2Cc2cc(Cl)ccc2C)c(Cl)c1 [II-0621] | > 7.00
O=c1[nH]cccc1Cn1c(=O)nc(NC23CC(Nc4nc(Cl)cc(Cl)n4)(C2)C3)n(Cc2cc(F)c(F)c(F)c2)c1=O [II-0622] | > 7.00

Compound | pIC50
Cc1cncc(-n2c(=O)nc(Nc3cc(C)c(N=S4(=O)CCCC4)cc3Cl)n(Cc3cc(Cl)ccc3C)c2=O)c1 [II-0623] | > 7.00
Cc1cncc(-n2c(=O)nc(Nc3ccc(N=S4(=O)CCCC4)cc3Cl)n(Cc3cc(Cl)ccc3C)c2=O)c1 [II-0624] | > 7.00
Cc1cncc(-n2c(=O)nc(Nc3ccc(N=S(C)(C)=O)cc3Cl)n(Cc3cc(Cl)ccc3C)c2=O)c1 [II-0625] | > 7.00
COc1cc(OC)nc(NC23CC(Nc4nc(=O)n(CC5=CC=CNC5C)c(=O)n4Cc4cc(F)c(F)c(F)c4)(C2)C3)n1 (stereo not drawn) [II-0626] | > 7.00
Cc1cc(C)nc(NC23CC(Nc4nc(=O)n(Cc5ccc[nH]c5=O)c(=O)n4Cc4cc(F)c(F)c(F)c4)(C2)C3)n1 [II-0627] | > 7.00
Cc1cncc(-n2c(=O)nc(Nc3cc4cn([C@H]5CC[C@H](N)CC5)nc4cc3Cl)n(Cc3cc(Cl)ccc3Cl)c2=O)c1 [II-0628] | > 7.00
Cc1cncc(-n2c(=O)nc(Nc3cc(C)c(N=S(C)(C)=O)cc3Cl)n(Cc3cc(Cl)ccc3C)c2=O)c1 [II-0629] | > 7.00
Cc1ccc(Cl)cc1Cn1c(NC23CC(Nc4ncccn4)(C2)C3)nc(=O)n(Cc2ccncc2C)c1=O [II-0630] | > 7.00
Cc1cncc(-n2c(=O)nc(Nc3ccc(N=S(C)(C)=O)cc3C)n(Cc3cc(Cl)ccc3C)c2=O)c1 [II-0631] | > 7.00
Cc1cncc(-n2c(=O)nc(Nc3ccc(N=S(C)(C)=O)cc3OC(F)(F)F)n(Cc3cc(Cl)ccc3C)c2=O)c1 [II-0632] | > 7.00
COc1cc(N=S(C)(C)=O)ccc1Nc1nc(=O)n(-c2cncc(C)c2)c(=O)n1Cc1cc(Cl)ccc1C [II-0633] | > 7.00
Cn1cnc(Cn2c(=O)nc(Nc3cc4cn(C)nc4cc3Cl)n(Cc3cc(F)c(F)cc3C(F)(F)F)c2=O)n1 [II-0634] | > 7.00
Cn1cnc(Cn2c(=O)nc(Nc3cc4cn(C)nc4cc3Cl)n(Cc3ccc(F)c(F)c3)c2=O)n1 [II-0635] | > 7.00
CCOC(=O)c1cc(F)c(F)cc1Cn1c(Nc2cc3cn(C)nc3cc2Cl)nc(=O)n(Cc2ncn(C)n2)c1=O [II-0636] | > 7.00
Cc1cnn(Cc2cc(F)c(F)cc2Cn2c(Nc3cc4cn(C)nc4cc3Cl)nc(=O)n(Cc3ncn(C)n3)c2=O)c1 [II-0637] | > 7.00
CCOc1c(F)cc(F)cc1Cn1c(Nc2cc3cn(C)nc3cc2Cl)nc(=O)n(Cc2ncn(C)n2)c1=O [II-0638] | > 7.00
CCc1c(F)cc(Cl)cc1Cn1c(Nc2cc3cn(C)nc3cc2Cl)nc(=O)n(Cc2ncn(C)n2)c1=O [II-0639] | > 7.00
Cn1cnc(Cn2c(=O)nc(Nc3cc4cn(C)nc4cc3Cl)n(Cc3cc(Cl)cc(F)c3Cl)c2=O)n1 [II-0640] | > 7.00
Cn1cnc(Cn2c(=O)nc(Nc3cc4cn(C)nc4cc3Cl)n(Cc3cc(Cl)cc(F)c3F)c2=O)n1 [II-0641] | > 7.00
Cn1cnc(Cn2c(=O)nc(Nc3cc4cn(C)nc4cc3Cl)n(Cc3cc(Cl)cc(F)c3OCCO)c2=O)n1 [II-0642] | > 7.00
CNC(=O)CCn1c(=O)nc(Nc2cc3cn(C)nc3cc2Cl)n(Cc2cc(F)c(F)cc2F)c1=O [II-0643] | 6.00
